Source: PubChem BioAssay (NCI)
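96-well plates; 48 h exposure; 5 concentrations. Endpoints by linear interpolation between flanking doses. Not reached: highest tested concentration assigned. TGI is the concentration that stops growth completely.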

How the values were obtained:
Assay in all cases: NCI anticancer screen, dose series, 48 h
[1] = system: SNB-19 CNS
[2] = system: UO-31 renal
[3] = system: KM12 colon
[4] = system: A549 NSCLC
[5] = system: SW-620 colon
[6] = system: MOLT-4 leukemia
[7] = system: RXF 393 renal
[8] = system: NCI-H522 lung
[9] = system: CCRF-CEM leukemia
[10] = system: OVCAR-3 ovarian
[11] = system: A498 renal
[12] = system: RXF-631 renal
[13] = system: LOX IMVI melanoma
[14] = system: HCT-116 colon
[15] = system: U251 CNS
[16] = system: UACC-62 melanoma
[17] = system: SF-539 CNS
[18] = system: OVCAR-5 ovarian
[19] = system: EKVX NSCLC
[20] = system: IGROV1 ovarian
[21] = system: 786-0 renal
[22] = system: OVCAR-4 ovarian
[23] = system: HT29 colon
[24] = system: MALME-3M melanoma
[25] = system: TK-10 renal
[26] = system: SF-295 CNS
[27] = system: CAKI-1 renal
[28] = system: UACC-257 melanoma
[29] = system: SNB-75 CNS
[30] = system: LXFL 529 NSCLC
[31] = system: NCI-H226 lung
[32] = system: HCT-15 colon
[33] = system: M19-MEL melanoma
[34] = system: NCI-H460 lung
[35] = system: DMS 114 small cell lung
[36] = system: HOP-92 NSCLC
[37] = system: M14 melanoma
[38] = system: RPMI-8226 leukemia
[39] = system: SNB-78 CNS
[40] = system: NCI-H23 lung
[41] = system: SF-268 CNS
[42] = system: KM20L2 colon
[43] = system: SK-MEL-5 melanoma
[44] = system: SK-MEL-28 melanoma
[45] = system: HOP-18 NSCLC
[46] = system: OVCAR-8 ovarian
[47] = system: HOP-62 NSCLC
[48] = system: ACHN renal
[49] = system: SN12C renal
[50] = system: HL-60(TB) leukemia
[51] = system: SR leukemia
[52] = system: SK-OV-3 ovarian
[53] = system: COLO 205 colon
[54] = system: DLD-1 colon

Measured: TGI

O=C(COc1ccc(/C=C/C(=O)c2ccc(Cl)cc2)cc1)Nc1c(Cl)cccc1Cl
> 100 µM: [1] | [2] | [3] | [4] | [5] | [6] | [7] | [8] | [9] | [10] | [11] | [12] | [13] | [14] | [15] | [16] | [17] | [18] | [19] | [20] | [21] | [22] | [23] | [24] | [25] | [26] | [27] | [28] | [29] | [30] | [31] | [32] | [33] | [34] | [35] | [36] | [37] | [38] | [39] | [40] | [41] | [42] | [43] | [44] | [45] | [46] | [47] | [48] | [49] | [50] | [51] | [52] | [53] | [54]
